The values below come from patent US11325943B2, “Crystalline salt forms of SBT-20” (priority 2017, dated 2022).

Read-outs that look alike come from different tables or passages of the source. Non-standard residues stand in square brackets, D forms with d. Residues, ends and D or L forms follow the SMILES beside them.

For data set [1] the following is noted: counter-ions studied during the initial salt screening; cited from earlier work.
Data set [2] is described as follows: Qualitative solubility in water. The format is physicochemical. The following applies: at RT. The source says: No signs of acetic acid were observed.
Data set [3] in a line: Exposure of amorphous salts to humidity (saturated NaCl solution, 75% RH at room temperature) for stability assessment. Type of data set: physicochemical. The following applies: for behaviour on exposure to 75% RH: a week of exposure (repeat). The source says:
Although amorphous, salts that were produced earlier were exposed to Humidity through saturated NaCl solution (75% RH at room temperature) for stability assessment.
Other salts of SBT-020 that were made during the initial screening that were missing in Table 13 were exposed to 75% RH. The missing salts were Maleate, Salicylate, Tartarate (repeat), Succinate and Phosphate (repeat).

For the molecule `O=S(=O)(O)c1ccccc1` [Benzene sulfonic acid], the pKa1 in data set [1] is −2.8. As for `Br` [Hydrobromic acid], in data set [1], the pKa1 is listed as −8. On to `O=C(O)CC(O)C(=O)O` (stereo not shown) [Malic acid], for which, in data set [1], the pKa1 is reported as 3.4 and the pKa2 is on record as 5.2. Broadly, the solubility is the concentration that dissolves in the medium under given conditions. Read a low solubility as a poorly soluble substance. The molecule `N=C(N)NCCC[C@@H](NC(=O)[C@@H](N)Cc1ccccc1)C(=O)N[C@@H](Cc1ccccc1)C(=O)N[C@@H](CCCCN)C(N)=O` [Tosylate] (H-F[dR]FK-NH2) gave a solubility in data set [2] above 100 mg/mL. The “physical stability upon humidity exposure” value in data set [3] (saturated NaCl solution, 75% RH at room temperature, amorphous salts) is on record as “demonstrated physical stability upon humidity exposure”; in data set [3] (saturated NaCl solution, 75% RH at room temperature, amorphous salts, listed as tosylate) it was “best stability under humidity exposure”. With Phosphate, in data set [3], the “physical stability upon humidity exposure” value was “demonstrated physical stability upon humidity exposure” and the “behaviour on exposure to 75% RH” value was “became wet, though they did not deliquesce even after a week”. On to Tartarate, for which, in data set [3], the “behaviour on exposure to 75% RH” value was “became wet, though they did not deliquesce even after a week”.
